Assay results published in paper PMC9728974 (Science Advances, 2022).
Values belong to the compound of their own block, whether it stands above or below them.

Legend:
PmiR = target: T1, PmiR (Pseudomonas aeruginosa, UniProt Q9I5E1); test: ITC; format: binding
T1 sequence (Q9I5E1 1-240): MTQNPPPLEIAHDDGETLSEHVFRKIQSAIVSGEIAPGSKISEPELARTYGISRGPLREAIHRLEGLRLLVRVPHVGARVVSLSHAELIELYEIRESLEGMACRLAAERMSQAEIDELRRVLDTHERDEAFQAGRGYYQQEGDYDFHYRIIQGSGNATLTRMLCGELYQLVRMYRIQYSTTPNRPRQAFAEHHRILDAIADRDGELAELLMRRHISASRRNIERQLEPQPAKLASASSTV

[1] = target: T2, truncated PmiR protein (amino acids 15 to 232) (Pseudomonas aeruginosa, UniProt Q9I5E1); test: ITC; format: binding
T2 sequence (Q9I5E1 15-232): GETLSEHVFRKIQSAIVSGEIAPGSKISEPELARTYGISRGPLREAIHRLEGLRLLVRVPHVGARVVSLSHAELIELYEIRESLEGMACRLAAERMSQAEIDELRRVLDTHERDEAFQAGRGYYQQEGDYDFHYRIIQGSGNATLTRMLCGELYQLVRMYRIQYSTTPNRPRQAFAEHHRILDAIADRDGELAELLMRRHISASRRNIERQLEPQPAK

PrpB = target: T3, PrpB (Pseudomonas aeruginosa, UniProt Q9I5E2); test: HPLC-UV, A214; format: biochemical; conditions: 1.0 mM; 1 mM tris-HCl pH 7.5
T3 sequence (Q9I5E2 1-298): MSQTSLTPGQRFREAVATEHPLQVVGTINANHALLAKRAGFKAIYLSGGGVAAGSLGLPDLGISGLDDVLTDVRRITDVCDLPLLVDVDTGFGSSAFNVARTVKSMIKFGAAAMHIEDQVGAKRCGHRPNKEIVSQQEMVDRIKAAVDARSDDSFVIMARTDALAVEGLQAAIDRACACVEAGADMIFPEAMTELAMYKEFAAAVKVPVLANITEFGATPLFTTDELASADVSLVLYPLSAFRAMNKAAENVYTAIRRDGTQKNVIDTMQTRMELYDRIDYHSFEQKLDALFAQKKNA

[2] = target: PmiR (PA0797), wild type (Pseudomonas aeruginosa PAO1); test: SEC

Kd (PmiR): 21.8 µM
Kd [1]: 62.9 µM
Compound: C[C@](O)(C(=O)O)[C@H](CC(=O)O)C(=O)O (racemic) [MIC]

Kd (PmiR): 64.1 µM
Compound: O=C(O)C[C@H](C(=O)O)[C@@H](O)C(=O)O [isocitrate]

Compound: CC(=O)C(=O)O [pyruvate]
HPLC-UV, A214 (PrpB): PrpB, methylisocitrate lyase, was the last but critical enzyme to convert MIC to succinate and pyruvate

Compound: PmiR (PA0797), wild type (natural protein)
stoichiometry N [2]: 2
